# According to article PMC4996985, “Sequence-Based Screening for Rare Enzymes: New Insights into the World of AMDases Reveal a Conserved Motif and 58 Novel Enzymes Clustering in Eight Distinct Families” (Frontiers in Microbiology, 2016):
# Target: T1, AmdP (Polymorphum gilvum, UniProt F2IXG8)
# T1 construct: gene SL003B_3169; full length, 744 bp codon-adapted synthetic gene, pET-21a NdeI/XhoI, C-terminal His6 tag kept, E. coli BL21, Ni-NTA purified
# T1 sequence (F2IXG8 1-247): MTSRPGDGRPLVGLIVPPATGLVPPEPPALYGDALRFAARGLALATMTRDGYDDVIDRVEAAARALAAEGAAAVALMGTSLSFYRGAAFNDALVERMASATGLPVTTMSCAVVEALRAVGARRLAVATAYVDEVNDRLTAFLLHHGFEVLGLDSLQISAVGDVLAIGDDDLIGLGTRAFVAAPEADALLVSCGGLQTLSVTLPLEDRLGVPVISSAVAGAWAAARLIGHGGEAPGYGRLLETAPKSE
# Assay: chiral GC of product after derivatisation
# Assay type: biochemical
# Settings: 10 mM substrate, 50 mM Tris pH 7.5; substrate contained <4% racemic flurbiprofen
smiles,measurement,value
"CC(C(=O)O)(C(=O)O)c1ccc(-c2ccccc2)c(F)c1 [2a, flurbiprofen malonate]",chiral GC of product after derivatisation,selectivity of all three AMDases was analyzed with aryl malonic acid derivates
